The assay concerns the target T1, Human M4 mAChR (Homo sapiens, UniProt P08173).
T1 construct: host or cells: HEK293 (Sor-L9 HEK293 human/M4/GloSensor Cell Clone Number 40)
T1 sequence (P08173 1-479): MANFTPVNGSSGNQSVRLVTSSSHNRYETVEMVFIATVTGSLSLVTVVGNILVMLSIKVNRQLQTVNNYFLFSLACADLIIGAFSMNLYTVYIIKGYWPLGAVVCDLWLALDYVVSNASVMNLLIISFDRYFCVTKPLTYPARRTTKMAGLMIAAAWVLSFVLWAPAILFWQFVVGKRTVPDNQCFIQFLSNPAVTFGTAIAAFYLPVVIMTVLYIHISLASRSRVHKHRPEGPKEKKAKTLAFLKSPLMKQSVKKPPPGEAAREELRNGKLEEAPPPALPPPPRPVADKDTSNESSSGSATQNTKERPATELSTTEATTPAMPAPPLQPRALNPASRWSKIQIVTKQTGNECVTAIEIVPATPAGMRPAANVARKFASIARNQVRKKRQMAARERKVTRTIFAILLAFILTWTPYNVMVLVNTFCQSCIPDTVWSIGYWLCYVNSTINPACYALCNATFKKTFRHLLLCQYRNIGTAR
As to the kind of experiment: Muscarinic hM4 Agonist GloSensor cAMP Assay. In kind it is cell-based. How it is done:
Muscarinic hM4 Agonist GloSensor cAMP Assay Methods
Compounds were prepared in advance of the assay. Test compounds were solubilized in 100% dimethyl sulfoxide (DMSO, Sigma D8418) to a concentration of 30 mM. A 10-point intermediate dilution series using half log dilutions was created in 100% DMSO with a top concentration of 4 mM. The serially diluted compounds were spotted as 200 nL/well in a 384-well plate (Matrix Catalog Number 4325). The final compound concentration range in the assay was […] to 0.3 nM with a final DMSO concentration of 0.25%.
Human M4 mAChR expressing stable cell lines were generated using a parental HEK cell expressing the GloSensor construct (Promega Sor-L9 HEK293 human/M4/GloSensor Cell Clone Number 40). The cells were grown in 90% Dulbecco's Modified Eagle Medium (DMEM, Gibco 11960), 10% fetal bovine serum (FBS, Hyclone CH.30160-03), 1% Penicillin/Streptomycin (Gibco 15070-063), 500 µg/mL Geneticin (Gibco 10131-027), 200 µg/mL Hygromycin B (Invitrogen 10687-010) and 1% Glutamax (Thermo Fisher 35050061).
One day prior to assay, the cells were lifted using dissociation buffer (Gibco 13151-014) and spun in a centrifuge at 250 times gravity for 5 minutes at room temperature. Supernatant was removed and the cell pellet was resuspended in growth media to a concentration of […]. Cells were then added to white poly-d-lysine coated plates (Becton Dickinson 356661) as 40 μL per well (25,000 cells) and incubated overnight (20-24 hours) in a 37° C. humidified incubator with 5% carbon dioxide (C02).
The following day, culture media was removed from the cell plates and replaced with […] equilibration medium containing 88% CO2-independent medium (Invitrogen 18045088), 10% FBS and 2% GloSensor cAMP reagent (Promega E1291) that had been warmed to 37° C. Plates were then covered and incubated for 2 hours at room temperature while protected from light.
To the previously prepared serially diluted compound plates, 200 nL of 4 mM ACh (Sigma A2661, 10 μM final) or 200 nL of 100% DMSO (0.25% final) was added to the positive and negative control wells, respectively. Compound plates were then diluted by adding 16 μL of C02-independent media containing 10% FBS and an EC80 concentration of isoproterenol (Sigma 16504). Prior to compound testing, concentration response curves were run for isoproterenol to determine the EC80 concentration. At the end of the 2 hour equilibration, 10 µL was transferred from the compound plates to the cell plates. The cell plates were incubated an additional 7 minutes at room temperature and then read using a Multi-label EnVision plate reader (Perkin Elmer) for luminescence.
The raw data, expressed as relative light units, was analyzed using Activity Base (IDBS). The percent effect at each compound concentration was calculated based on and relative to the amount of cAMP produced by the positive and negative control wells contained on each assay plate. The positive control wells contained an EC100 concentration of ACh and the negative control wells contained only DMSO. The concentration and % effect values were fit using a four-parameter logistic dose response equation, and the concentration required for 50% effect (EC50) was determined as well as the maximum asymptote of the concentration response curve to define the efficacy.

Where [1] appears, read: Emax: maximum asymptote of concentration response curve, relative to ACh positive control (EC100) and DMSO, geometric mean, read-out: % maximum effect.
The mark [2] stands for this setting: HEK293 human/M4/GloSensor cells, EC80 isoproterenol, geometric mean, number of determinations in parentheses, read-out: EC50.
Setting [3] is: enantiomers reported in footnotes to Table 1, number of determinations in parentheses, read-out: M4 EC50.
Setting [4] is: enantiomers reported in footnotes to Table 1, number of determinations in parentheses, read-out: M4 Emax.

The record followed here is US12398119B2, “Piperazine azaspiro derivatives” (PFIZER INC., priority 2018, dated 2025).

Each structure is given as a SMILES string. Like-named read-outs stand apart in the source and are kept apart here.

Turning to `CCOC(=O)N1CC2(CCC(N3CCN(c4ncccc4-c4ccc(NC(C)=O)cc4)CC3)C2)C1` (stereo not drawn) [Example 52, ethyl 6-(4-(3-(4-acetamidophenyl)pyridin-2-yl)piperazin-1-yl)-2-azaspiro[3.4]octane-2-carboxylate], under setting [1], the Emax stood at 92%. Besides, the EC50 under setting [2] came out at 0.568 nM.
For `CCOC(=O)N1CC2(CCC(N3CCN(c4cccnc4OCC(F)(F)F)CC3)C2)C1` (stereo not drawn) [Example 10, ethyl 6-{4-[2-(2,2,2-trifluoroethoxy)pyridin-3-yl]piperazin-1-yl}-2-azaspiro[3.4]octane-2-carboxylate], the Emax under setting [1] is 91.5%. Further, the EC50 under setting [2] was 5.13 nM.
Take `CCOC(=O)N1CC2(CCC(N3CCN(c4cccnc4OC(F)F)CC3)C2)C1` (single isomer, unassigned) [enantiomer of Example 19, ethyl 6-{4-[2-(difluoromethoxy)pyridin-3-yl]piperazin-1-yl}-2-azaspiro[3.4]octane-2-carboxylate]: under setting [3], the EC50 is 201 nM. Besides, the Emax under setting [4] was 74%.
With `CCOC(=O)N1CC2(CC[C@@H](N3CCN(c4nccnc4-c4cncs4)CC3)C2)C1` [Example 11, ethyl (6R)-6-{4-[3-(1,3-thiazol-5-yl)pyrazin-2-yl]piperazin-1-yl}-2-azaspiro[3.4]octane-2-carboxylate], the Emax under setting [1] worked out at 66.4%. Moreover, the EC50 under setting [2] worked out at 0.806 nM.
The matching figures for `CCOC(=O)N1CC2(CCC(N3CCN(c4ncccc4-c4cccnn4)CC3)C2)C1` (stereo not drawn) [Example 45, ethyl 6-{4-[3-(pyridazin-3-yl)pyridin-2-yl]piperazin-1-yl}-2-azaspiro[3.4]octane-2-carboxylate]: 35.2% and 8.2 nM.
Regarding `CCOC(=O)N1CC2(CC(N3CCN(c4ncccc4-c4sncc4C)CC3)C2)C1` [Example 31, ethyl 6-{4-[3-(4-methyl-1,2-thiazol-5-yl)pyridin-2-yl]piperazin-1-yl}-2-azaspiro[3.3]heptane-2-carboxylate], the Emax under setting [1] was 101%. Besides, the EC50 under setting [2] amounted to 13.5 nM.
In the case of `CCOC(=O)N1CC2(CC[C@@H](N3CCN(c4ncccc4-c4nncs4)CC3)C2)C1` [Example 5, ethyl (6R)-6-{4-[3-(1,3,4-thiadiazol-2-yl)pyridin-2-yl]piperazin-1-yl}-2-azaspiro[3.4]octane-2-carboxylate], under setting [1], the Emax came to 46.4%. For the same compound, the EC50 under setting [2] stood at 1.6 nM.
Take `CCOC(=O)N1CC2(CCC(N3CCN(c4ncccc4C4CC4)CC3)C2)C1` (single isomer, unassigned) [enantiomer of Example 22, ethyl 6-[4-(3-cyclopropylpyridin-2-yl)piperazin-1-yl]-2-azaspiro[3.4]octane-2-carboxylate]: the EC50 under setting [3] turned out to be 11.6 nM. In addition, under setting [4], the Emax was 103%.
Consider `CCOC(=O)N1CC2(CCC(N3CCN(c4cccnc4OC4COC4)CC3)C2)C1` (stereo not drawn) [Example 25, ethyl 6-{4-[2-(oxetan-3-yloxy)pyridin-3-yl]piperazin-1-yl}-2-azaspiro[3.4]octane-2-carboxylate], for which the Emax under setting [1] is 83.1%. Also, the EC50 under setting [2] stood at 5.37 nM.
Regarding `CCOC(=O)N1CC2(CC[C@@H](N3CCN(c4ncccc4-n4cc(C)cn4)CC3)C2)C1` [Example 9, ethyl (6R)-6-{4-[3-(4-methyl-1H-pyrazol-1-yl)pyridin-2-yl]piperazin-1-yl}-2-azaspiro[3.4]octane-2-carboxylate], the Emax under setting [1] worked out at 68.2%. The EC50 under setting [2] is 14.8 nM.
In the case of `CCOC(=O)N1CC2(CCC(N3CCN(c4ncccc4-c4ccc(OC)nc4)CC3)C2)C1` (stereo not drawn) [Example 38, ethyl 6-[4-(6′-methoxy-3,3′-bipyridin-2-yl)piperazin-1-yl]-2-azaspiro[3.4]octane-2-carboxylate], the Emax under setting [1] turned out to be 74.7%. For the same compound, under setting [2], the EC50 came out at 1.17 nM.
Turning to `CCOC(=O)N1CC2(CCC(N3CCN(c4ncccc4-c4ccc(C#N)cc4)CC3)C2)C1` (stereo not drawn) [Example 53, ethyl 6-(4-(3-(4-cyanophenyl)pyridin-2-yl)piperazin-1-yl)-2-azaspiro[3.4]octane-2-carboxylate], under setting [1], the Emax was found to be 97%. Further, under setting [2], the EC50 was determined as 1.75 nM.
For `CCOC(=O)N1CC2(CC[C@H](N3CCN(c4ncccc4OC)CC3)C2)C1` [Example 7, ethyl (6S)-6-[4-(3-methoxypyridin-2-yl)piperazin-1-yl]-2-azaspiro[3.4]octane-2-carboxylate], the Emax under setting [1] turned out to be 47.7%. Also, the EC50 under setting [2] was 425 nM.
Take `CCOC(=O)N1CC2(CCC(N3CCN(c4ncccc4C)CC3)C2)C1` (single isomer, unassigned) [enantiomer of Example 21, ethyl 6-[4-(3-methylpyridin-2-yl)piperazin-1-yl]-2-azaspiro[3.4]octane-2-carboxylate]: under setting [3], the EC50 was over 241 nM. Under setting [4], the Emax was determined as 76.2%.
As for `CCOC(=O)N1CC2(CC[C@@H](N3CCN(c4nccnc4N4CCC(OC)CC4)CC3)C2)C1` [Example 43, ethyl (6R)-6-{4-[3-(4-methoxypiperidin-1-yl)pyrazin-2-yl]piperazin-1-yl}-2-azaspiro[3.4]octane-2-carboxylate], the Emax under setting [1] was 55.5%. Further, under setting [2], the EC50 is 1.51 nM.
Consider `CCOC(=O)N1CC2(CCC(N3CCN(c4ncccc4-c4ccnnc4)CC3)C2)C1` (stereo not drawn) [Example 17, ethyl 6-{4-[3-(pyridazin-4-yl)pyridin-2-yl]piperazin-1-yl}-2-azaspiro[3.4]octane-2-carboxylate], for which, under setting [1], the Emax came out at 92.3%. The EC50 under setting [2] was 4.41 nM.
In the case of `CCOC(=O)N1CC2(CCC(N3CCN(c4ncccc4C4CC4)CC3)C2)C1` (single isomer, unassigned) [Example 22, ethyl 6-[4-[3-cyclopropylpyridin-2-yl)piperazin-1-yl]-2-azaspiro[3.4]octane-2-carboxylate], the Emax under setting [1] stood at 107%. Moreover, under setting [2], the EC50 was under 0.074 nM.
On the same counts, the results for `CCOC(=O)N1CC2(CCC(N3CCN(c4ncccc4-c4cncnc4)CC3)C2)C1` (stereo not drawn) [Example 14, ethyl 6-{4-[3-(pyrimidin-5-yl)pyridin-2-yl]piperazin-1-yl}-2-azaspiro[3.4]octane-2-carboxylate] are 93.7% and 1.2 nM.
Take `CCOC(=O)N1CC2(CCC(N3CCN(c4nccnc4OC)CC3)C2)C1` (single isomer, unassigned) [enantiomer of Example 27, ethyl 6-[4-(3-methoxypyrazin-2-yl)piperazin-1-yl]-2-azaspiro[3.4]octane-2-carboxylate]: the EC50 under setting [3] is over 10000 nM.
For `CCOC(=O)N1CC2(CCC(N3CCN(c4ncccc4-c4cnc(C#N)cn4)CC3)C2)C1` (single isomer, unassigned) [Example 41, ethyl 6-{4-[3-(5-cyanopyrazin-2-yl)pyridin-2-yl]piperazin-1-yl}-2-azaspiro[3.4]octane-2-carboxylate], the Emax under setting [1] worked out at 82.4%. For the same compound, under setting [2], the EC50 worked out at 8.52 nM.

The EC50 is the midpoint of the concentration-response curve.
